Measurements taken from patent US9283277B2, “Methods and compositions for the treatment of obesity” (Children's Medical Center Corporation, priority 2008, dated 2016).

Experiments:
Type in all cases: in vivo
HFD-fed obese mice = assay: PBA alone in HFD-fed or ND-fed mice: bodyweight, hypothalamic PERK and leptin-stimulated Stat3 phosphorylation
Protocol: (§1) C57BL/6 mice that were kept on high fat diet feeding for 25 weeks were either treated with vehicle or PBA (1 g/kg/day) for 10 days. Following the pretreatment period mice were given daily leptin (5 mg/kg/day, IP) treatment. (a) Bodyweight (g), (b) % decrease in the bodyweight, and (c) 24 hour food intake (g) during the 30 days of leptin administration. Metabolic cage analysis was performed after 25 days of treatment (d) O2 consumption (ml/kg/hr), (e) CO2 production (ml/kg/hr), (f) X-axis ambulatory activity, (g) Respiratory exchange ratio (VCO2/VO2), (h) Heat generation (kcal/hr). Dexa scan analysis of (i) Lean body mass (g), (j) Fat % and (k) Total fat amount (g). C57BL6 mice were fed a HFD for a period of 25 weeks and then either treated with PBA (1 g/kg) or VEH for 16 days. (1) PERK phosphorylation in the hypothalamus extracts. (m) Leptin-stimulated Stat3^Tyr705 phosphorylation in the VEH and PBA-treated HFD-fed mice. (n) C57BL6 mice were fed a ND for a period of 25 weeks and then either treated with PBA (1 g/kg) or VEH for 16 days. Following the treatment period mice were starved for six hours and subsequently injected with leptin (IP, 1 mg/kg). Stat3^Tyr705 phoshorylation and total Stat levels were examined in the hypothalamus extracts. (n=6 in each group). Error bars are ±S.E.M., P values are determined by Student's t-test. (*p<0.05, **p<0.01, ***p<0.001)
Mice were fed a HFD (60%) for 25 weeks and following an acclimation PBA (1 gr/kg/day) and vehicle treatment was initiated. (a) Bodyweight, (b) % decrease in bodyweight and (c) daily food intake of VEH and PBA-treated HFD-fed obese mice were analyzed during the 16 days of treatment period. (n=5 in each group) Error bars are ±S.E.M., P values are determined by Student's t-test (*p<0.05, **p<0.01, ***p<0.001).
To investigate whether PBA treatment reduces the ER stress, we analyzed the PERK phosphorylation in the HFD-fed mice, which were either treated with VEH or PBA for 16 days. […] To investigate whether leptin-stimulated activation of LepRB signaling is increased in the hypothalamus of the PBA-treated HFD-fed obese mice, we intraperitoneally injected leptin (0.75 mg/kg) following a six-hour fast and analyzed the Stat3^Tyr705 phosphorylation in the hypothalamus extracts of VEH and PBA-treated mice. […] We also analyzed the leptin-stimulated Stat3^Tyr705 phosphorylation in the hypothalamus of the wt mice, which were either treated with vehicle or PBA for 16 days.

[1] = system: hypothalamus of lean mice; assay: Tunicamycin infusion to the third ventricle of lean mice; conditions: leptin 1 mg/kg IP 5½ hours after third ventricle tunicamycin or vehicle infusion, 30 minutes after leptin
Source text: Having shown that ER stress is increased in the hypothalamus of HFD-fed mice and causes leptin resistance in the cellular systems, we sought to investigate whether leptin action could also be blocked by directly inducing ER stress in brains of lean mice.
Next, we investigated the expression patterns of leptin resistance markers such as neuropeptide Y (NPY) and agouti related peptide (AgRP) in the vehicle- and tunicamycin-infused mice. […] In addition, to exclude the possibility that tunicamycin infusion leads to a decay in mRNA degradation of NPY and AgRP due to a possible toxic effect, we analyzed mRNA levels of IR and insulin receptor substrate 1 (IRS1).
To assess whether increased ER stress and activation of UPR signaling would create leptin resistance and block the leptin-stimulated Stat3 activation in the hypothalamus, leptin (1 mg/kg/day) was intraperitoneally administered 5½ hours after tunicamycin infusion. The experiment was ended by dissection of the hypothalami 30 minutes after leptin administration. […] In contrast, administration of tunicamycin to the third ventricle and creation of ER stress, in complete accordance with our data obtained from 293 cells, blocked activation of Stat3 in the hypothalamus (data not shown).

[2] = system: HFD-fed obese C57BL/6 mice; assay: PBA pretreatment and leptin in HFD-fed obese mice (bodyweight, metabolic cage, DEXA)
Protocol: as §1
Obesity owing to a high fat diet is fundamentally different from that seen in ob/ob mice in that it occurs in the face of high leptin levels. To determine whether PBA also sensitizes HFD-fed obese mice to leptin, mice that were kept on HFD for 25 weeks were pretreated with vehicle or PBA for 10 days, and then given leptin treatment (5 mg/kg/day). Leptin administration to the vehicle-treated group led to an acute weight loss, which was rapidly regained (FIG. 3a). By the end of treatment period, leptin created a slight but significant change in the body weight in the vehicle-treated group by reducing it from 42.42±0.27 g to 40.78±0.55 (3.8±0.9% decrease in bodyweight) (FIG. 3a,b). […] During the course of the experiment we placed the vehicle and PBA-treated groups in metabolic cages to investigate metabolic homeostasis in detail. […] Following the metabolic cage analysis we performed DEXA scan to analyze whole body fat content.

[3] = HFD-fed mice, PBA 1 g/kg alone, 16 days, vs VEH
[4] = mice on HFD 25 weeks, leptin 5 mg/kg/day IP, 30 days, vehicle or PBA (1 g/kg/day) pretreated

Row | Compound | body weight (HFD-fed obese mice; [3]) | food intake (HFD-fed obese mice; [3]) | PERK phosphorylation in the hypothalamus (HFD-fed obese mice; HFD-fed obese mice, PBA 1 g/kg, 16 days, vs VEH) | leptin-stimulated Stat3 Tyr705 phosphorylation in hypothalamus (HFD-fed obese mice; HFD-fed obese mice, PBA 16 days, leptin 0.75 mg/kg IP after six-hour fast) | leptin-stimulated Stat3 Tyr705 phosphorylation in hypothalamus (HFD-fed obese mice; ND-fed lean wt mice, PBA 16 days vs VEH, leptin IP 1 mg/kg) | Stat3 phosphorylation (activation) in the hypothalamus [1] | lean mass ([2]; HFD-fed mice, DEXA scan) | initial body weight ([2]; mice on HFD 25 weeks, before leptin 5 mg/kg/day, vehicle or PBA pretreated 10 days) | body weight at end of treatment period [2, 4] | decrease in bodyweight [2, 4]
1 | O=C(O)CCCc1ccccc1 [PBA, 4-phenyl butyric acid] | did not reduce | did not reduce | marked decrease | marked up-regulation | did not cause a higher activation | – | – | – | – | –
2 | leptin: adipocyte-derived hormone that suppresses appetite | – | – | – | – | – | marked increase | does not change | 42.42 ± 0.27 g | 40.78 ± 0.55 g | 3.8±0.9%
